In patent publication US11440886B2, “Anti-inflammatory compound, and preparation and use thereof” (E-Nitiate Biopharmaceuticals (Hangzhou) Co., Ltd., priority 2018, dated 2022):

Target: human recombinant PDE4B1 enzyme (Homo sapiens (Human), UniProt Q07343)
Assay: Inhibition of PDE4B1 activity by cAMP HTRF assay
Assay type: biochemical
Settings: human recombinant PDE4B1, cAMP 40 nM, pH 7.4
Experimental: Determination of the inhibition of the compounds on PDE4B1 activity by using cAMP HTRF® assay
The inhibitory effect of the compounds on human PDE4B1 enzyme activity was determined by quantifying the 5′-adenosine monophosphate (5′-AMP) formed from 3′,5′-cyclic adenosine monophosphate (cAMP).
The test compound or water (control) and human recombinant PDE4B1 enzyme (4.8 U) were mixed in a buffer solution (pH 7.4) consisting of 1× Hanks' balanced salt solution (HBSS), 5 mM HEPES, 3 mM MgCl2, and 0.1% BSA and incubated for 10 min. A cAMP enzyme substrate (final concentration 40 nM) was added, and the mixture was incubated at room temperature for 60 min. Then a fluorescent acceptor (Dye2 labeled with cAMP), a fluorescent donor (anti-cAMP antibody labeled with europium cryptate) and a non-specific phosphodiesterase inhibitor IBMX (3-isobutyl-1-methyl xanthine; final concentration 1 mM) were added. After 60 min, the fluorescence transfer related to the amount of remaining cAMP was measured on a microplate reader (Rubystar, BMG) at λex=337 nm, λem=620 nm and λem=665 nm. The enzyme activity is calculated from the ratio of the signals measured at 665 nm and 620 nm. The results are expressed as percent inhibition of the enzyme activity of the control (without PDE4 inhibitor). The enzyme was omitted for measurement of the basic control. The IC50 value (IC50=the concentration that caused the half-maximum inhibition of the specific activity of the control) is derived from dose-response measurements with eight different concentrations (n=2; repeated 2 times)

human recombinant PDE4B1 enzyme, sequence (Q07343 whole entry): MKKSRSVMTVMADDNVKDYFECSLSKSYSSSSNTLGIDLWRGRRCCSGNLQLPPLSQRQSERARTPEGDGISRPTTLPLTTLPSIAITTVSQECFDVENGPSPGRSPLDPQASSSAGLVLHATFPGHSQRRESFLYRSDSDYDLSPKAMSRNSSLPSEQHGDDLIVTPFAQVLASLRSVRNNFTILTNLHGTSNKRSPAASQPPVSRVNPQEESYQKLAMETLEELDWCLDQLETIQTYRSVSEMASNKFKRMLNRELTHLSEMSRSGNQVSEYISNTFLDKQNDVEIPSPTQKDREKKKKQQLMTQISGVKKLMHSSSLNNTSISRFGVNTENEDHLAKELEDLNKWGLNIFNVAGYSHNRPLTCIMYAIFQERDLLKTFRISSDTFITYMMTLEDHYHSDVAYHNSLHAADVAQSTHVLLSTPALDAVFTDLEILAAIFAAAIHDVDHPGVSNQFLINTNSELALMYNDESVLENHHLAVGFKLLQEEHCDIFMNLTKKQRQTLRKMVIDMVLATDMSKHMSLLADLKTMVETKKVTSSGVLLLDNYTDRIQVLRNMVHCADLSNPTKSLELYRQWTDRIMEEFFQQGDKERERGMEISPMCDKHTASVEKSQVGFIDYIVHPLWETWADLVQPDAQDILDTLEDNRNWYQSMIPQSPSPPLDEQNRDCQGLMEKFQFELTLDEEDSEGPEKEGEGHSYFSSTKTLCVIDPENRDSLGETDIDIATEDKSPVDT

IC50 | SMILES
44 nM | COc1ccc(C(=O)Cn2c(C)cc(=O)cc2C)cc1OC [Example 11, 1-(2-(3,4-dimethoxyphenyl)-2-oxoethyl)-2,6-dimethylpyridin-4(1H)-one]
4.9 nM | CCCOc1cc(C(=O)Cn2c(C)cc(=O)cc2C)ccc1OC [Example 13, 1-(2-(3-propoxy-4-methoxyphenyl)-2-oxoethyl)-2,6-dimethylpyridin-4(1H)-one]
21 nM | COc1ccc(C(=O)Cn2c(C)cc(=O)cc2C)cc1OC(C)C [Example 14, 1-(2-(3-isopropoxy-4-methoxyphenyl)-2-oxoethyl)-2,6-dimethylpyridin-4(1H)-one]
16 nM | CCCCCOc1cc(C(=O)Cn2c(C)cc(=O)cc2C)ccc1OC [Example 17, 1-(2-(3-n-pentyloxy-4-methoxyphenyl)-2-oxoethyl)-2,6-dimethylpyridin-4(1H)-one]
4.5 nM | CCCCCCOc1cc(C(=O)Cn2c(C)cc(=O)cc2C)ccc1OC [Example 18, 1-(2-(3-n-hexyloxy-4-methoxyphenyl)-2-oxoethyl)-2,6-dimethylpyridin-4(1H)-one]
4.6 nM | COc1ccc(C(=O)Cn2c(C)cc(=O)cc2C)cc1OC1CC1 [Example 19, 1-(2-(3-cyclopropyloxy-4-methoxyphenyl)-2-oxoethyl)-2,6-dimethylpyridin-4(1H)-one]
13 nM | COc1ccc(C(=O)Cn2c(C)cc(=O)cc2C)cc1OCC1CC1 [Example 20, 1-(2-(3-cyclopropylmethoxy-4-methoxyphenyl)-2-oxo)ethyl-2,6-dimethylpyridin-4(1H)-one]
20 nM | COc1ccc(C(=O)Cn2c(C)cc(=O)cc2C)cc1OCC1CCC1 [Example 22, 1-(2-(3-cyclobutylmethoxy-4-methoxyphenyl)-2-oxo)ethyl-2,6-dimethylpyridin-4(1H)-one]
39 nM | C=CCOc1cc(C(=O)Cn2c(C)cc(=O)cc2C)ccc1OC [Example 26, 1-(2-(3-allyloxy-4-methoxyphenyl)-2-oxoethyl)-2,6-dimethylpyridin-4(1H)-one]
65 nM | COc1ccc(C(=O)Cn2c(C)cc(=O)cc2C)cc1OCC=C(C)C [Example 27, 1-(2-(3-((3-methylbut-2-en-1-yl)oxy)-4-methoxyphenyl)-2-oxoethyl)-2,6-dimethylpyridin-4(1H)-one]
92 nM | C#CCOc1cc(C(=O)Cn2c(C)cc(=O)cc2C)ccc1OC [Example 28, 1-(2-(3-propargyloxy-4-methoxyphenyl)-2-oxoethyl)-2,6-dimethylpyridin-4(1H)-one]
93 nM | CC#CCOc1cc(C(=O)Cn2c(C)cc(=O)cc2C)ccc1OC [Example 29, 1-(2-(3-(but-2-yn-1-yloxy)-4-methoxyphenyl)-2-oxoethyl)-2,6-dimethylpyridin-4(1H)-one]
116 nM | COc1ccc(C(=O)Cn2c(C)cc(=O)cc2C)cc1OC1COC1 [Example 30, 1-(2-(3-(oxacyclobutan-3-yl-oxy)-4-methoxyphenyl)-2-oxoethyl)-2,6-dimethylpyridin-4(1H)-one]
13.9 nM | COc1ccc(C(=O)Cn2c(C)cc(=O)cc2C)cc1OCSC [Example 32, 1-(2-(3-methylthiomethoxy-4-methoxyphenyl)-2-oxoethyl)-2,6-dimethylpyridin-4(1H)-one]
830 nM | COc1ccc(C(=O)Cn2c(C)cc(=O)cc2C)cc1OC[S+](C)[O-] (stereo not shown) [Example 33, 1-(2-(3-methylsulfoxidemethoxy-4-methoxyphenyl)-2-oxoethyl)-2,6-dimethylpyridin-4(1H)-one]
420 nM | COc1ccc(C(=O)Cn2c(C)cc(=O)cc2C)cc1OCS(C)(=O)=O [Example 34, 1-(2-(3-methylsulfonemethoxy-4-methoxyphenyl)-2-oxoethyl)-2,6-dimethylpyridin-4(1H)-one]
32 nM | COc1ccc(C(=O)Cn2c(C)cc(=O)cc2C)cc1OCCSC [Example 35, 1-(2-(3-methylthioethoxy-4-methoxyphenyl)-2-oxoethyl)-2,6-dimethylpyridin-4(1H)-one]

Continued, compound first:

SMILES | IC50
COc1ccc(/C=C/n2c(C)cc(=O)cc2C)cc1O[C@H]1CC[S+]([O-])C1 (single isomer, unassigned) [Example 83-1] | 550 nM
COc1ccc(/C=C/n2c(C)cc(=O)cc2C)cc1O[C@H]1CC[S+]([O-])C1 (single isomer, unassigned) [Example 83-2] | 106 nM
COc1ccc(/C=C/n2c(C)cc(=O)cc2C)cc1O[C@@H]1CC[S+]([O-])C1 (single isomer, unassigned) [Example 86-1] | 310 nM
COc1ccc(/C=C/n2c(C)cc(=O)cc2C)cc1O[C@@H]1CC[S+]([O-])C1 (single isomer, unassigned) [Example 86-2] | 81 nM
Cc1cc(=O)cc(C)n1/C=C/c1ccc(OC(F)F)c(O[C@H]2CC[S+]([O-])C2)c1 (single isomer, unassigned) [Example 98-1] | 97 nM
Cc1cc(=O)cc(C)n1/C=C/c1ccc(OC(F)F)c(O[C@H]2CC[S+]([O-])C2)c1 (single isomer, unassigned) [Example 98-2] | 12.5 nM
Cc1cc(=O)cc(C)n1/C=C/c1ccc(OC(F)F)c(O[C@@H]2CC[S+]([O-])C2)c1 (single isomer, unassigned) [Example 101-1] | 99 nM
Cc1cc(=O)cc(C)n1/C=C/c1ccc(OC(F)F)c(O[C@@H]2CC[S+]([O-])C2)c1 (single isomer, unassigned) [Example 101-2] | 26 nM
COc1ccc(C(C#N)=Cn2c(C)cc(=O)cc2C)cc1OCC1CC1 (stereo in doubt) [Example 106, (E)-1-(2-(3-cyclopropylmethoxy-4-methoxyphenyl)-2-cyanoethenyl)-2,6-dimethylpyridin-4(1H)-one] | 2.7 nM
COc1ccc(C(O)Cn2c(C)cc(=O)cc2C)cc1OCC1CC1 (stereo not shown) [Example 1, 1-(2-(3-cyclopropylmethoxy-4-methoxyphenyl)-2-hydroxyethyl)-2,6, dimethylpyridin-4(1H)-one] | 760 nM
COc1ccc(C(Cn2c(C)cc(=O)cc2C)OC(=O)C2CC2)cc1OCC1CC1 (stereo not shown) [Example 4, (1-(3-cyclopropylmethoxy-4methoxyphenyl)-2-(2,6-dimethyl-4-carbonylpyridin-1(4H)-yl)ethyl) cyclopropylcarboxylate] | 36 nM
C/C=C/C(=O)OC(Cn1c(C)cc(=O)cc1C)c1ccc(OC)c(OCC2CC2)c1 (stereo not shown) [Example 6, (1-(3-cyclopropylmethoxy-4methoxyphenyl)-2-(2,6-dimethyl-4-carbonylpyridin-1(4H)-yl)ethyl) crotonate] | 19 nM
COc1ccc(C(Cn2c(C)cc(=O)cc2C)OC(=O)C=C(C)C)cc1OCC1CC1 (stereo not shown) [Example 7, (1-(3-cyclopropylmethoxy-4methoxyphenyl)-2-(2,6-dimethyl-4-carbonylpyridin-1(4H)-yl)ethyl) 3-methylcrotonate] | 5.7 nM
CC#CC(=O)OC(Cn1c(C)cc(=O)cc1C)c1ccc(OC)c(OCC2CC2)c1 (stereo not shown) [Example 8, (1-(3-cyclopropylmethoxy-4methoxyphenyl)-2-(2,6-dimethyl-4-carbonylpyridin-1(4H)-yl)ethyl) but-2-ynoate] | 23 nM
CC#CCOC(Cn1c(C)cc(=O)cc1C)c1ccc(OC)c(OCC2CC2)c1 (stereo not shown) [Example 9, 1-(2-(but-2-yn-1-yloxy)-2-(3-cyclopropylmethoxy-4-methoxyphenyl)ethyl)-2,26-dimethylpyridin-4-(1H)-one] | 25 nM
COc1ccc(C(=O)Cn2c(C)cc(=O)cc2C)cc1O [Example 10, 1-(2-(3-hydroxy-4-methoxyphenyl)-2-oxoethyl)-2,6-dimethylpyridin-4(1H)-one] | 3300 nM
CCCCOc1cc(C(=O)Cn2c(C)cc(=O)cc2C)ccc1OC [Example 15, 1-(2(3-n-butoxy-4-methoxyphenyl)-2-oxoethyl)-2,6-dimethylpyridin-4(1H)-one] | 33 nM
COc1ccc(C(=O)Cn2c(C)cc(=O)cc2C)cc1OCC(C)C [Example 16, 1-(2-(3-iso-butoxy-4-methoxyphenyl)-2-oxoethyl)-2,6-dimethylpyridin-4(1H)-one] | 10.3 nM
COc1ccc(C(=O)Cn2c(C)cc(=O)cc2C)cc1OC1CCC1 [Example 21, 1-(2-(3-cyclobutyloxy-4-methoxyphenyl)-2-oxoethyl)-2,6-dimethylpyridin-4(1H)-one] | 4.6 nM
COc1ccc(C(=O)Cn2c(C)cc(=O)cc2C)cc1OC1CCCC1 [Example 23, 1-(2-(3-cyclopentyloxy-4-methoxyphenyl)-2-oxoethyl)-2,6-dimethylpyridin-4(1H)-one] | 5 nM
COc1ccc(C(=O)Cn2c(C)cc(=O)cc2C)cc1OC1CCCCC1 [Example 24, 1-(2-(3-cyclohexyloxy-4-methoxyphenyl)-2-oxoethyl)-2,6-dimethylpyridin-4(1H)-one] | 23 nM
COc1ccc(C(=O)Cn2c(C)cc(=O)cc2C)cc1OC1CC=CC1 [Example 25, 1-(2-(3-(cyclopent-3-en-1-yloxy)-4-methoxyphenyl)-2-oxoethyl)-2,6-dimethylpyridin-4(1H)-one] | 11.5 nM
COc1ccc(C(=O)Cn2c(C)cc(=O)cc2C)cc1OC1CCCO1 (stereo not shown) [Example 31, 1-(2-(3-(tetrahydrofuran-2-yl)oxy-4-methoxyphenyl)-2-oxoethyl)-2,6-dimethylpyridin-4(1H)-one] | 26 nM
